The target of one data set is T1, MC1 receptor (Homo sapiens, UniProt Q01726).
T1 construct: expressed in transfected cells
Briefly: Assay (IV) Melanocortin Receptor 1 (MC1) binding assay. The gist of the method: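 Competition binding used BHK cell membranes stably expressing MC1 (25 μg/ml) with 22 pM final ^125NDP-α-MSH in 25 mM HEPES pH 7.4, CaCl2, MgSO4, EDTA, 0.1% HSA (or ovalbumin), 0.005% Tween 20. After 90 min at 30° C., bound radioligand was filtered and counted, with binding curves fitted by non-linear regression.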

The nature of data set [1]: Solubility data of compounds in water over the pH range. It counts as physicochemical. To be noted: read-out: Conc (solubility in water).
Another data set relates to ad libitum fed rat model. The experiment in a line: Assay (I) efficacy testing on appetite, ad libitum fed rat model. It counts as in vivo. The note with it: dosing 1 mg/kg. The method, then:
Assay (I)—Experimental protocol for efficacy testing on appetite with MC4 analogues, using an ad libitum fed rat model. TAC:SPRD @mol rats or Wistar rats from M&B Breeding and Research Centre A/S, Denmark are used for the experiments. The rats have a body weight 200-250 g at the start of experiment. The rats arrive at least 10-14 days before start of experiment with a body weight of 180-200 g. Each dose of compound is tested in a group of 8 rats. […] When the animals arrive they are housed individually in a reversed light/dark phase (lights off 7:30 am, lights on 7:30 pm), meaning that lights are off during daytime and on during nighttime. […] During this period the animals are handled at least 3 times. The experiment is conducted in the rats' home cages. Immediately before dosing the rats are randomised to the various treatment groups (n 8) by body weight. They are dosed according to body weight at between 7:00 am and 7:45 am, with a 1-3 mg/kg solution administered intraperitoneally (ip), orally (po) or subcutaneously (sc). The time of dosing is recorded for each group. After dosing, the rats are returned to their home cages, where they then have access to food and water. […] At the end of the experimental session, the animals are euthanised. The individual data are recorded in Microsoft excel sheets. Outliers are excluded after applying the Grubbs statistical evaluation test for outliers, and the result is presented graphically using the GraphPad Prism program.

Another data set deals with T2, human MC4 receptor (Homo sapiens, UniProt P32245).
T2 construct: expressed in transfected cells
T2 sequence (P32245 whole entry): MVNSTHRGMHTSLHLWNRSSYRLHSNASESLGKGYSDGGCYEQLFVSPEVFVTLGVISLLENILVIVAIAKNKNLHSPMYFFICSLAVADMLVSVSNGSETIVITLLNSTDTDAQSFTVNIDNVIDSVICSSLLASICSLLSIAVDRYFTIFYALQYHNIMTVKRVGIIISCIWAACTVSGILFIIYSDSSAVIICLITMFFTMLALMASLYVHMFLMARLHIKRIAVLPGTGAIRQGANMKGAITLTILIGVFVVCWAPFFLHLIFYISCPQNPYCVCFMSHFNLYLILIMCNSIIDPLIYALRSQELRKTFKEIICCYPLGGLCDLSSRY
Briefly: Assay (V) Melanocortin Receptor 4 (MC4) binding assay. The note with it: Assay (V) MC4 [Ki] (nM), 125NDP-α-MSH binding, BHK cell membranes. In outline:
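BHK membranes stably expressing human MC4 receptor were incubated with ^125NDP-α-MSH (≈79 pM final) and compound for 2 h at 25 °C, pH 7.0 HEPES buffer with HSA or ovalbumin. Filter-bound radioactivity was gamma counted. Binding curves were fitted by non-linear regression.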

Experimental findings from patent US20100173835A1, “Peptides for Treatment of Obesity” (Novo Nordisk A/S, priority 2008, published 2010) are described below.

The structures appear in SMILES notation. Values after ≈ are worked out from the molar mass of the structure shown. Where two headings read alike, the source gives them in different places. Where a SMILES comes first, the peptide text is derived from it. Bridges are numbered along the chain shown (N, C = ends). [ ]: non-standard residue; d: D form. The star is where a group is joined. Palmitoyl(16-(5-tetrazolyl)) = O=C(CCCCCCCCCCCCCCCc1nnn[nH]1)*; Lys(CH2CO2H)2 = N[C@@H](CCCCN(CC(=O)O)CC(=O)O)C(=O)O; Hyp = O=C(O)[C@@H]1C[C@@H](O)CN1; Nle = CCCC[C@H](N)C(=O)O; AEEA = NCCOCCOCC(=O)O; βAla = NCCC(=O)O Some results are limits rather than exact numbers.

T1 sequence (Q01726 whole entry): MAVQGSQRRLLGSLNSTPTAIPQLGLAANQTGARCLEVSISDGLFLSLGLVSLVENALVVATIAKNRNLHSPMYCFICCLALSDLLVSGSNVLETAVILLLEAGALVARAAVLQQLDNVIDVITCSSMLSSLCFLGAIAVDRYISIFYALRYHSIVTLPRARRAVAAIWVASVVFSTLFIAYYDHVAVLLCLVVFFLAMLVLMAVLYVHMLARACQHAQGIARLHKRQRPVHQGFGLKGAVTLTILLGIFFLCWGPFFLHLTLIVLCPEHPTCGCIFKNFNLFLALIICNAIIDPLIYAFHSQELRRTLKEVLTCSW

For the molecule `CCCC[C@H](NC(=O)[C@H](CCCCN(CC(=O)O)CC(=O)O)NC(=O)[C@H](CO)NC(=O)[C@H](CCC(N)=O)NC(=O)[C@H](CO)NC(=O)CNC(=O)COCCOCCNC(=O)CCCCCCCCCCCCCCCc1nnn[nH]1)C(=O)N[C@H]1CCC(=O)NCCCC[C@@H](C(N)=O)NC(=O)[C@H](Cc2c[nH]c3ccccc23)NC(=O)[C@H](CCCNC(=N)N)NC(=O)[C@@H](Cc2ccccc2)NC(=O)[C@@H]2C[C@@H](O)CN2C1=O` [Example 5, (2-{2-[16-(Tetrazol-5-yl)hexadecanoylamino]ethoxy}ethoxy)acetyl-Gly-Ser-Gln-Ser-Lys(biscarboxymethyl)-Nle-c[Glu-Hyp-D-Phe-Arg-Trp-Lys]-NH2] ({Palmitoyl(16-(5-tetrazolyl))-AEEA}-GSQS[Lys(CH2CO2H)2][Nle]E[Hyp][dF]RWK-NH2; lactam 7-12), the values for the Ki on MC1 receptor and at human MC4 receptor were > 10000 nM and 7.55 nM, respectively. The solubility at 3 days in data set [1] (pH 4.22, pH 4.22) came to 20 µM (≈ 40.5 µg/mL); in data set [1] (pH 4.55, pH 4.55), 21 µM (≈ 42.6 µg/mL); in data set [1] (pH 5.1, pH 5.10), 25 µM (≈ 50.7 µg/mL); in data set [1] (pH 5.23, pH 5.23), 30 µM (≈ 60.8 µg/mL); in data set [1] (pH 5.97, pH 5.97) it was 129 µM (≈ 262 µg/mL); in data set [1] (pH 6.29, pH 6.29) it was 239 µM (≈ 485 µg/mL). The solubility at 3 days worked out at 244 µM (≈ 495 µg/mL) in data set [1] (pH 6.68, pH 6.68); 245 µM (≈ 497 µg/mL) in data set [1] (pH 7.03, pH 7.03); 251 µM (≈ 509 µg/mL) in data set [1] (pH 7.04, pH 7.04). In addition, the “Food consumption (% of vehicle) 24 h” value in the data set with ad libitum fed rat model was 81 % of vehicle. For the same molecule, the “Food consumption (% of vehicle) 48 h” value in the data set on ad libitum fed rat model is reported as 91 % of vehicle.

`CCCC[C@H](NC(=O)[C@H](CCCCN(CC(=O)O)CC(=O)O)NC(=O)CCNC(=O)[C@H](Cc1c[nH]cn1)NC(=O)[C@H](CCC(N)=O)NC(=O)[C@H](CO)NC(=O)[C@H](CO)NC(=O)[C@H](CCC(N)=O)NC(=O)[C@@H](CO)NC(=O)CNC(=O)COCCOCCNC(=O)COCCOCCNC(=O)CCCCCCCCCCCCCCCc1nnn[nH]1)C(=O)N[C@H]1CCC(=O)NCCCC[C@@H](C(N)=O)NC(=O)[C@H](Cc2c[nH]c3ccccc23)NC(=O)[C@H](CCCNC(=N)N)NC(=O)[C@@H](Cc2ccccc2)NC(=O)[C@@H]2C[C@@H](O)CN2C1=O` [Example 20, (2-{2-[2-(2-{2-[16-(Tetrazol-5-yl)hexadecanoylamino]ethoxy}ethoxy)acetylamino]ethoxy}ethoxy)acetyl-Gly-D-Ser-Gln-Ser-Ser-Gln-His-β-Ala-Lys(biscarboxymethyl)-Nle-c[Glu-Hyp-D-Phe-Arg-Trp-Lys]-NH2] ({Palmitoyl(16-(5-tetrazolyl))-AEEA-AEEA}-G[dS]QSSQH[βAla][Lys(CH2CO2H)2][Nle]E[Hyp][dF]RWK-NH2; lactam 11-16): the inhibition constant (Ki) is > 10000 nM on MC1 receptor and 4.55 nM at human MC4 receptor. The solubility at 3 days in data set [1] (pH 2.94, pH 2.94) is 499 µM (≈ 1300 µg/mL); in data set [1] (pH 4.37, pH 4.37), 512 µM (≈ 1330 µg/mL); in data set [1] (pH 4.97, pH 4.97), 406 µM (≈ 1050 µg/mL); in data set [1] (pH 5.4, pH 5.40) it was 67 µM (≈ 174 µg/mL); in data set [1] (pH 5.51, pH 5.51) it was 56 µM (≈ 145 µg/mL); in data set [1] (pH 6.23, pH 6.23), 53 µM (≈ 138 µg/mL). Also, the solubility at 3 days in data set [1] (pH 6.91, pH 6.91) was 223 µM (≈ 579 µg/mL); in data set [1] (pH 6.99), 345 µM (≈ 896 µg/mL); in data set [1] (pH 7.23, pH 7.23), 473 µM (≈ 1230 µg/mL); in data set [1] (pH 7.55, pH 7.55) it was 452 µM (≈ 1170 µg/mL). The “Food consumption (% of vehicle) 24 h” value in the data set on ad libitum fed rat model (1 mg/kg) is 61 % of vehicle. In addition, the “Food consumption (% of vehicle) 48 h” value in the data set on ad libitum fed rat model (1 mg/kg) is 72 % of vehicle.
